Assay results reported in US20240247015A1, “PHOSPHORUS DERIVATIVES AS NOVEL SOS1 INHIBITORS” (BAYER AKTIENGESELLSCHAFT, priority 2021, published 2024).

target: interaction of human SOS1 (SOS1) with human K-RasG12C (Homo sapiens (Human), UniProt Q07889); test: Biochemical assay: hK-RasG12C interaction assay with hSOS1 (HTRF); type: binding; conditions: GST-hK-RasG12C with His-hSOS1, 60 min incubation at 20° C., mean, read-out: K-RasG12C - SOS interaction assay IC50 (mean)
Summary of the method: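 Compounds, duplicates at 11 concentrations from 0.073 nM to 20 µM, were preincubated 2 min with 10 nM GST-hK-RasG12C, then 20 nM His-hSOS1 was added, all at 20 °C. After 60 min, 665/620 nm HTRF ratio normalized to DMSO and SOS1-free controls; IC50 by 4-parameter fit.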

Sequence of interaction of human SOS1 (SOS1) with human K-RasG12C (Q07889 564-1049 limits assumed): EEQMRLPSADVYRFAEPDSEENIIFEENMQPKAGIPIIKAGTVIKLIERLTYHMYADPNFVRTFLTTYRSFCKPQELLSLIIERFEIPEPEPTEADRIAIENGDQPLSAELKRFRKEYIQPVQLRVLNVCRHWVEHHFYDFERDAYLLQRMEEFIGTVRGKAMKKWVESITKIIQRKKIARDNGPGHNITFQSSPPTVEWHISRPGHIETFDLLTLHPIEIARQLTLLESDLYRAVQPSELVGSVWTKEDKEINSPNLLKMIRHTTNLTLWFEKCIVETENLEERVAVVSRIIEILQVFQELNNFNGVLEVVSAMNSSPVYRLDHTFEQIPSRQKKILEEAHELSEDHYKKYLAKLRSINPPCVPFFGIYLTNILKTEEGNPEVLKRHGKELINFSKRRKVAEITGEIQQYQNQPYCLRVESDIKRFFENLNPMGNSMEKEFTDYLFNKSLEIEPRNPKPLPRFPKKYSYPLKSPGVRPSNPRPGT

Compound | IC50 [nM]
Cc1nc(N[C@H](C)c2cccc(C(F)(F)F)c2C)c2cc(P3(=O)CCN(C(=O)C4(C(F)F)CC4)CC3)ncc2n1 [Example 169, 1-[1-(difluoromethyl)cyclopropane-1-carbonyl]-4-[2-methyl-4-({(1R)-1-[2-methyl-3-(trifluoromethyl)phenyl]ethyl}amino)pyrido[3,4-d]pyrimidin-6-yl]-1,4lambda^5-azaphosphinan-4-one] | 9.55
Cc1nc(N[C@H](C)c2cccc(C(F)F)c2F)c2cc(P3(=O)CCN(C(=O)[C@@H](C)O)CC3)ncc2n1 [Example 150, 4-[4-{{(1R)-1-[3-(difluoromethyl)-2-fluorophenyl]ethyl}amino)-2-methylpyrido[3,4-d]pyrimidin-6-yl]-1-[(2R)-2-hydroxypropanoyl]-1,4lambda^5-azaphosphinan-4-one] | 4.76
CCP(C)(=O)c1cc2c(N[C@H](C)c3cccc(C(F)(F)CO)c3F)nc(C)nc2cn1 (stereo partly drawn) [Example 130, 2-{3-[(1R)-1-{{6-[ethyl(methyl)phosphoryl]-2-methylpyrido[3,4-d]pyrimidin-4-yl}amino)ethyl]-2-fluorophenyl}-2,2-difluoroethan-1-ol] | 16.1
COCC(F)(F)c1cccc([C@@H](C)Nc2nc(C)nc3cnc(P(C)(C)=O)cc23)c1F [Example 94, N-{(1R)-1-[3-(1,1-difluoro-2-methoxyethyl)-2-fluorophenyl]ethyl}-6-(dimethylphosphoryl)-2-methylpyrido[3,4-d]pyrimidin-4-amine] | 46.5
CCP(C)(=O)c1cc2c(N[C@H](C)c3cccc(C(F)F)c3F)nc(C)nc2cn1 (single isomer, unassigned) [Example 118] | 56.5
CCP(C)(=O)c1cc2c(N[C@H](C)c3cccc(C(F)(F)CO)c3F)nc(C)nc2cn1 (single isomer, unassigned) [Example 132] | 11.7
COCC(F)(F)c1cccc([C@@H](C)Nc2nc(C)nc3cnc(P4(=O)CCN(C(C)=O)CC4)cc23)c1F [Example 139, 1-acetyl-4-[4-({(1R)-1-[3-(1,1-difluoro-2-methoxyethyl)-2-fluorophenyl]ethyl}amino)-2-methylpyrido[3,4-d]pyrimidin-6-yl]-1,4lambda^5-azaphosphinan-4-one] | 5.4
Cc1nc(N[C@H](C)c2cccc(C(F)(F)F)c2Cl)c2cc(P(C)(C)=O)ncc2n1 [Example 120, N-{(1R)-1-[2-chloro-3-(trifluoromethyl)phenyl]ethyl}-6-(dimethylphosphoryl)-2-methylpyrido[3,4-d]pyrimidin-4-amine] | 36.7
Cc1nc(N[C@H](C)c2cccc(C(F)(F)C(=O)C(C)(C)C)c2F)c2cc(P(C)(C)=O)ncc2n1 [Example 110, 1-{3-[(1R)-1-{[6-(dimethylphosphoryl)-2-methylpyrido[3,4-d]pyrimidin-4-yl]amino}ethyl]-2-fluorophenyl}-1,1-difluoro-3,3-dimethylbutan-2-one] | 56.8
COCC(F)(F)c1cccc([C@@H](C)Nc2nc(C)nc3cnc(P4(=O)CCN(C(C)=O)CC4)cc23)c1 [Example 143, 1-acetyl-4-[4-({(1R)-1-[3-(1,1-difluoro-2-methoxyethyl)phenyl]ethyl}amino)-2-methylpyrido[3,4-d]pyrimidin-6-yl]-1,4lambda^5-azaphosphinan-4-one] | 12.6
Cc1nc(N[C@H](C)c2cccc(C(F)F)c2F)c2cc(P3(=O)CCN(C(=O)C4COC4)CC3)ncc2n1 [Example 158, 4-[4-{{(1R)-1-[3-(difluoromethyl)-2-fluorophenyl]ethyl}amino)-2-methylpyrido[3,4-d]pyrimidin-6-yl]-1-(oxetane-3-carbonyl)-1,4lambda^5-azaphosphinan-4-one] | 7.89
CC(=O)N1CCP(=O)(c2cc3c(N[C@H](C)c4cccc(C(F)(F)F)c4Cl)nc(C)nc3cn2)CC1 [Example 191] | 8.09
Cc1nc(N[C@H](C)c2cccc(C(F)(F)C(C)(C)O)c2F)c2cc(P3(=O)CC=CC3)ncc2n1 [Example 85, 1-[4-({(1R)-1-[3-(1,1-difluoro-2-hydroxy-2-methylpropyl)-2-fluorophenyl]ethyl}amino)-2-methylpyrido[3,4-d]pyrimidin-6-yl]-2,5-dihydro-1H-1lambda^5-phosphol-1-one] | 12
Cc1nc(NC(C)c2ccnc(C(F)(F)F)c2)c2cc(P(C)(C)=O)ncc2n1 (single isomer, unassigned) [Example 24, 6-(dimethylphosphoryl)-2-methyl-N-{1-[2-(trifluoromethyl)pyridin-4-yl]ethyl}pyrido[3,4-d]pyrimidin-4-amine] | > 20000
Cc1nc(N[C@H](C)c2cccc(C(F)F)c2F)c2cc(P3(=O)CCN(C(=O)c4cnn(C)c4)CC3)ncc2n1 [Example 161, 4-[4-{{(1R)-1-[3-(difluoromethyl)-2-fluorophenyl]ethyl}amino)-2-methylpyrido[3,4-d]pyrimidin-6-yl]-1-(1-methyl-1H-pyrazole-4-carbonyl)-1,4lambda^5-azaphosphinan-4-one] | 13.4
CC(=O)N1CCP(=O)(c2cc3c(N[C@H](C)c4cccc(C(F)F)c4F)nc(C)nc3cn2)CC1 [Example 10, 1-acetyl-4-[4-({(1R)-1-[3-(difluoromethyl)-2-fluorophenyl]ethyl}amino)-2-methylpyrido[3,4-d]pyrimidin-6-yl]-1,4lambda^5-azaphosphinan-4-one] | 7.8
Cc1nc(N[C@H](C)c2cccc(C(F)(F)F)c2C)c2cc(P3(=O)CCN(Cc4ccccc4)CC3)ncc2n1 [Example 5, 1-benzyl-4-[2-methyl-4-({(1R)-1-[2-methyl-3-(trifluoromethyl)phenyl]ethyl}amino)pyrido[3,4-d]pyrimidin-6-yl]-1,4lambda^5-azaphosphinan-4-one] | 261
CCP(C)(=O)c1cc2c(N[C@H](C)c3cccc(C(F)(F)C(C)O)c3F)nc(C)nc2cn1 (single isomer, unassigned) [Example 77, (2R*)-1-{3-[(1R)-1-{{6-[ethyl(methyl)phosphoryl]-2-methylpyrido[3,4-d]pyrimidin-4-yl}amino)ethyl]-2-fluorophenyl}-1,1-difluoropropan-2-ol] | 17.8
Cc1nc(N[C@H](C)c2cccc(C(F)(F)F)c2C)c2cc(P3(=O)CCN(C(=O)C4(O)CC4)CC3)ncc2n1 [Example 173, 1-(1-hydroxycyclopropane-1-carbonyl)-4-[2-methyl-4-({(1R)-1-[2-methyl-3-(trifluoromethyl)phenyl]ethyl}amino)pyrido[3,4-d]pyrimidin-6-yl]-1,4lambda^5-azaphosphinan-4-one] | 5.62
Cc1nc(N[C@H](C)c2cccc(C(F)(F)F)c2C)c2cc(P3(=O)CCN(C(=O)[C@@H](C)O)CC3)ncc2n1 [Example 166, 1-[(2R)-2-hydroxypropanoyl]-4-[2-methyl-4-{{(1R)-1-[2-methyl-3-(trifluoromethyl)phenyl]ethyl}amino)pyrido[3,4-d]pyrimidin-6-yl]-1,4lambda^5-azaphosphinan-4-one] | 4.83
CC(=O)N(C)CC(F)(F)c1cccc([C@@H](C)Nc2nc(C)nc3cnc(P4(=O)CCN(C(=O)C5CC5)CC4)cc23)c1F [Example 182, N-(2-{3-[(1R)-1-({6-[1-(cyclopropanecarbonyl)-4-oxo-1,4lambda^5-azaphosphinan-4-yl]-2-methylpyrido[3,4-d]pyrimidin-4-yl}amino)ethyl]-2-fluorophenyl}-2,2-difluoroethyl)-N-methylacetamide] | 3.95
